row,SMILES,melting point [°C]
1,Cc1cc(C)c2ncc(N(Cc3cc(C(C)(C)C)c(O)c(C(C)(C)C)c3)C(=O)Nc3ccc(F)cc3F)c(-c3ccccc3Cl)c2c1,124 to 126
2,CC1(C)C(=O)C(c2ccc(F)c(F)c2)=C1c1ccc(S(C)(=O)=O)cc1,118
3,O=C(O)CCCN(C(=O)c1cccc(C(F)(F)F)c1)c1cccc2ccccc12,128 to 129
4,COc1cc2c(cc1C)C(=O)CCC2,104 to 107
5,O=C(O)Cc1cnc(Cc2ccc(NC(=O)c3ccc(C(F)(F)F)cc3)cc2)n2ccnc12,205 to 207
6,NC(=O)CNC(=O)c1cccc(-c2ccc3c(c2)N(c2ccc(Cl)cc2Cl)CC3)c1,184 to 186
7,COc1ccc(C(=O)C=Cc2ccc(SC)cc2)cc1,112
8,Cn1cc(S(C)(=O)=O)c(=O)c2sccc21,258 to 261
9,COc1ccc(C2(CCCCl)S(=O)(=O)CCCS2(=O)=O)cc1OC,183 to 184
10,CC1(C)CC(=O)c2c(N3CCC3)sc(-c3cc[nH]n3)c2C1,263 to 265
11,CC(=O)Oc1ccc(C(CN(C(C)=O)C(C)(C)C)OC(C)=O)nc1C (stereo not given),124 to 128
12,COc1ccc(Sc2cc(Cl)ccc2[N+](=O)[O-])c(C(=O)O)c1,184 to 186
13,c1cc(Oc2ccc3c(c2)CCCN3)ccn1,117 to 122
14,COc1ccc(-c2cc3ccccc3[nH]2)cc1NCc1ccc([N+](=O)[O-])cc1,198 to 199
15,CC(C)OCc1nc(C(C)(C)O)c(C(=O)O)n1Cc1ccc(-c2ccccc2-c2nnn[nH]2)cc1,153 to 161
16,O=c1[nH]c2cc(-n3cnc4c3CCCC4)c([N+](=O)[O-])cc2[nH]c1=O,> 300
17,c1ccc(Oc2ccc(OCCCn3ccnc3)cc2)cc1,54.5 to 55.5
18,O=C1CCN(C(=O)N2CCN3C(=O)OC(c4ccccc4)(c4ccccc4)C3C2)c2ccccc21 (stereo not given),202 to 205
19,COCCn1cc2c(C3C(=O)Nc4ccc(Br)cc43)nc(NCC(C)O)nc2n1 (stereo not given),> 300
20,CCCCOC(=O)c1cc(OCc2ccccc2)c2c(Cl)cc(Cl)cc2n1,130 to 132
21,CCOc1ccc(C2C(C(=O)c3ccc(C(C)C)cc3)=C(O)C(=O)N2c2ccc(C)nn2)cn1 (stereo not given),274 to 276
22,CC(=O)N1CCN(c2nc(N)ccc2[N+](=O)[O-])CC1,202 to 203
23,Cn1c(=O)oc2cc(NCCCc3ccccc3)ccc21,97 to 98
24,O=c1cc(CCl)nc2sc(-c3ccccc3)nn12,201 to 202

row,SMILES,melting point [°C]
1,CC(C)C1Sc2ccccc2N(CC(N)=O)C(=O)C1N (stereo not given),227 to 229
2,CC(=O)Nc1ccc(C2=NN(C(=O)CCl)C(C)Cc3cc4c(cc32)OCO4)cc1 (stereo not given),138 to 140
3,COc1cc2c(=O)c(Cc3cccnc3)cn3c4cc(Br)ccc4c(=O)c(c1)c23,247 to 249
4,Cc1nc2ccc(C(=O)O)nc2n1Cc1ccc(-c2ccccc2)cc1,> 250
5,CSc1ncc2n1-c1ccc(Cl)cc1C(c1ccccc1F)=NC2,180 to 181
6,Cc1[nH]c2ccc(F)cc2c1C(=O)Nc1ccc(Oc2ccccc2)c(C#N)c1,237
7,O=C(NN=Cc1ccc(Br)cc1)c1[nH]c2ccccc2c1Cc1ccccc1,227 to 229
8,CCS(=O)(=O)N(CCCCC(N)=O)C1CC(C)(C)Oc2ccc(C)cc21 (stereo not given),127 to 129
9,CCC1=C(C)CN(C(=O)NCC2CCOc3cc(OC)c(S(=O)(=O)NC(=S)NC(C)C)cc32)C1=O (stereo not given),153
10,CCCCCCCCCCOc1ccc(C(=NO)c2cccc(C(=O)O)c2)cc1CCC(=O)O,163 to 165
11,O=C(Nc1ccc(F)cc1)c1ccc(C2COC(c3c(F)cccc3F)=N2)cc1 (stereo not given),210 to 212
12,CCCCCOc1ccc(C(=O)Nc2ccc3cc(CN4CCCC4)cnc3c2C)cc1,155
13,CCNC(=O)[C@H]1N(C(=O)[C@@H](OC(C)=O)[C@H](Cc2ccccc2)NC(=O)c2cc(C)cc(OC(C)=O)c2C)CC(F)(F)C1(C)C,88 to 93
14,CCn1ccc(=O)c2cnc(-c3ccc(O)cc3)nc21,320 to 324
15,Cc1nc(CNC(=O)c2ccnc(N3CCN(Cc4ccc(F)cc4)C3=O)c2)cs1,76 to 78
16,Cn1c(=O)n(CCCC2(C)OCCO2)c(=O)c2c1ncn2Cc1ccccc1,104 to 105
17,O=C1CCN(c2ccc(CC3SC(=O)NC3=O)cc2F)CC1 (stereo not given),129 to 130
18,C[N+]([O-])=C(Cn1ccnc1)c1ccc(F)cc1,81 to 84
19,Fc1ccccc1-c1nc2cccnc2s1,119 to 121
20,COc1cc(OCc2ccccn2)ccc1/C=C/c1cc(/C=C/c2ccc3c(c2)OCO3)n[nH]1,218 to 220
21,CCCCSc1cc(C(=O)O)cc(N)c1-c1ccccc1,143 to 144
22,O=C(O)COCC(=O)CCCCCCCCCC(=O)NONC(=O)O,64 to 67
23,COc1ccc(CCl)cc1OCc1nc(-c2ccco2)oc1C,115 to 116
24,COc1ccc(OCCCCCCc2c(C)n[nH]c2O)c(Cl)c1,145 to 146

row,SMILES,melting point [°C]
1,CCCCCCCCCCCCCCOc1ccc(C(=O)N(Cc2cccnc2)C(C)=O)cc1,46 to 48
2,Nc1nc(NCCC2CCC3(CC2)OCCO3)nc2c1ncn2C1OC(CO)C(O)C1O (stereo not given),133 to 137
3,CCOC(=O)C1=C(NC(C)=O)Oc2cc(O)ccc2C1c1cnc2ccccc2c1 (stereo not given),248 to 251
4,Cc1ncc(C(=O)N(C)Cc2cc(C(F)(F)F)cc(C(F)(F)F)c2)c(-c2ccccc2Br)n1,122
5,Cc1cc(C)c(S(=O)(=O)N(C)O)c(C)c1,83 to 84
6,CCCC(c1ccc(C)cc1)n1cncc1C(=O)OC (stereo not given),141 to 143
7,CCCSc1c2c(=O)n(C)c(=O)n(CC(C)C)c2nn1Cc1cccc2ccccc12,105
8,COC(=O)C=Cc1cc(O)cc2cc(-c3ccc(O)cc3)oc12,231 to 234
9,CC(C)(C)OC(=O)N1CCN(O)CC1,95 to 97
10,Cc1ccc(O)c(-c2csc(N(C)C)n2)c1,108 to 110
11,CC(C)c1nc(-c2ccc(/C=C/C3(O)CN4CCC3CC4)cc2)no1 (stereo not given),142 to 144
12,COc1ccc2[nH]c(C)c(CC(N)=O)c2c1,146 to 148
13,Cc1ccnc(C(=O)c2[nH]c3cc(Cl)c(Cl)cc3c2CC(=O)O)c1,220 to 224
14,CCCCC1=NC2(CCCC2)C(=O)N1Cc1ccc(-c2ccccc2S(=O)(=O)Nc2noc(C)c2C)c(COCCF)c1,68 to 73
15,CCCCc1cccc(-c2cn(C)cc(-c3ccccc3)c2=O)c1,87 to 89
16,CC(=O)OCc1ccc2oc(=O)c(C(=O)Oc3ccccc3I)cc2c1,156 to 158
17,NS(=O)(=O)Oc1ccccc1Cl,62.5 to 63.5
18,CCCc1cc(N2CCN(c3ccncc3)CC2)ccc1OCCCC(=O)OCC,65 to 67
19,Brc1ccc2c(ccc3cc(Br)ccc32)c1,163 to 166
20,FC(F)(F)c1cccc(Sc2cc(Br)nc(Br)c2)c1,68 to 70
21,O=C1NCCN1c1cn(-c2cccnc2)nc1Cl,167 to 170
22,COCCOc1ccc(CCCOC(=O)NS(=O)(=O)c2ccccc2)c(Oc2ncc(C(F)(F)F)cc2Cl)c1,174 to 177
